Measured values published in patent US10414763B2 (CANCER RESEARCH TECHNOLOGY LIMITED, priority 2014, dated 2019).

Molecular target: T1, full-length human PKCι (Homo sapiens, UniProt P41743)
T1 construct: Recombinant, full-length human PKCι expressed in Sf21 insect cells is also commercially available; purchased EMD Millipore; host or cells: Sf21 insect cells (baculovirus)
T1 sequence (P41743 1-596): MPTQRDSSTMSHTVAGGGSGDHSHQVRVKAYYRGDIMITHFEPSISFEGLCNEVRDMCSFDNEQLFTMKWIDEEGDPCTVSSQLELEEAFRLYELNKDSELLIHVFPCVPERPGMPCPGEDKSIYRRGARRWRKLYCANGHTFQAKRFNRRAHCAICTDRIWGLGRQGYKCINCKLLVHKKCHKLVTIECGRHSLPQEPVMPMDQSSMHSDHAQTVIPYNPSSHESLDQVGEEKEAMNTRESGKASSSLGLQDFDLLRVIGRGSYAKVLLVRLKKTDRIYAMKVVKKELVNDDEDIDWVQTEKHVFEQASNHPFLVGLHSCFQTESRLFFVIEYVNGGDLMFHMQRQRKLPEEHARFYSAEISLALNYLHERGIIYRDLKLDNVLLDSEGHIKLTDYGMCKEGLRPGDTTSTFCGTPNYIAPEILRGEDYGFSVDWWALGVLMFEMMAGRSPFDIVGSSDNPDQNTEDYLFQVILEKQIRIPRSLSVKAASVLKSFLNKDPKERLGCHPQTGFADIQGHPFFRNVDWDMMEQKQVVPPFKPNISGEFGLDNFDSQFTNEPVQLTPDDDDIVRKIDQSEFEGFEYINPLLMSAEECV
Experiment: PKCι IC50 IMAP fluorescence polarisation assay, full-length enzyme, 150 μM ATP
Format: biochemical
Conditions: read-out: IC50 in IMAP assay against full length PKCi at 150 μM ATP
Procedure, shortened: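 IMAP fluorescence polarisation kinase assay: 15 pM baculovirus-expressed human PKCiota with 100 nM FAM-pseudosubstrate peptide and 150 μM ATP, 1 h at 25 °C. IMAP detection reagent then 2 h at 25 °C before FP measurement. Inhibition referenced to no-compound and no-enzyme controls for IC50 fitting.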

Compound | IC50
c1ccn2nc(Nc3cc(-c4nc(N5CCC6CNCCC65)c5c(C6CC6)cncc5n4)ccn3)nc2c1 (stereo not drawn) [Example 152, {4-[5-Cyclopropyl-4-(octahydro-pyrrolo[3,2-c]pyridin-1-yl)-pyrido [3,4-d]pyrimidin-2-yl]-pyridin-2-yl}-[1,2,4]triazolo[1,5-a] pyridin-2-yl-amine] | 1000 to 10000 nM
Cc1cc2c(-c3nc(N[C@H]4CCNCC4(C)C)c4c(C5CC5)cncc4n3)ccnc2[nH]1 [Example 153, [5-Cyclopropyl-2-(2-methyl-1H-pyrrolo[2,3-b]pyridin-4-yl)-pyrido[3,4-d]pyrimidin-4-yl]-((S)-3,3-dimethyl-piperidin-4-yl)-amine] | 100 to 1000 nM
CC1(C)CNCC[C@H]1Nc1nc(-c2ccnc(Nc3nc(F)ccc3F)c2)nc2cncc(C3CC3)c12 [Example 157, {5-Cyclopropyl-2-[2-(3,6-difluoro-pyridin-2-ylamino)-pyridin-4-yl]-pyrido[3,4-d]pyrimidin-4-yl}-((R)-3,3-dimethyl-piperidin-4-yl)-amine] | 100 to 1000 nM
Fc1cc(F)c(Nc2cc(-c3nc(NC4CCCNCC4)c4c(C5CCC5)cncc4n3)ccn2)nc1F (stereo not drawn) [Example 159, Azepan-4-yl-{5-cyclobutyl-2-[2-(3,5,6-trifluoro-pyridin-2-ylamino)-pyridin-4-yl]-pyrido[3,4-d]pyrimidin-4-yl}-amine] | < 100 nM
Fc1ccc(F)c(Nc2cc(-c3nc(NC4CCCNCC4)c4c(C5CCC5)cncc4n3)ccn2)n1 (stereo not drawn) [Example 160, Azepan-4-yl-{5-cyclobutyl-2-[2-(3,6-difluoro-pyridin-2-ylamino)-pyridin-4-yl]-pyrido[3,4-d]pyrimidin-4-yl}-amine] | < 100 nM
CC1(C)CNCC[C@@H]1Nc1nc(-c2ccnc3[nH]c4ccccc4c23)nc2cncc(C3CCC3)c12 [Example 200] | 100 to 1000 nM
Fc1cccc(Nc2cc(-c3nc(N4CCOC5CNCC54)c4c(C5CC5)cncc4n3)ccn2)n1 (stereo not drawn) [Example 201, {4-[5-Cyclopropyl-4-(hexahydro-pyrrolo[3,4-b][1,4]oxazin-4-yl)-pyrido[3,4-d]pyrimidin-2-yl]-pyridin-2-yl}-(6-fluoro-pyridin-2-yl)-amine] | < 100 nM
Fc1cc(F)c(Nc2cc(-c3nc(N4CCOC5CNCC54)c4c(C5CC5)cncc4n3)ccn2)nc1F (stereo not drawn) [Example 202, {4-[5-Cyclopropyl-4-(hexahydro-pyrrolo[3,4-b][1,4]oxazin-4-yl)-pyrido[3,4-d]pyrimidin-2-yl]-pyridin-2-yl}-(3,5,6-trifluoro-pyridin-2-yl)-amine] | < 100 nM
Fc1ccc(F)c(Nc2cc(-c3nc(N4CCOC5CNCC54)c4c(C5CC5)cncc4n3)ccn2)n1 (stereo not drawn) [Example 203, {4-[5-Cyclopropyl-4-(hexahydro-pyrrolo[3,4-b][1,4]oxazin-4-yl)-pyrido[3,4-d]pyrimidin-2-yl]-pyridin-2-yl}-(3,6-difluoro-pyridin-2-yl)-amine] | 100 to 1000 nM
CC(C)c1cc(C(C)C)c(S(=O)(=O)Oc2nc(-c3ccnc4[nH]c5ccccc5c34)nc3cncc(C4CCC4)c23)c(C(C)C)c1 [Example 204, 2,4,6-Triisopropyl-benzenesulfonic acid 5-cyclobutyl-2-(9H-pyrido[2,3-b]indol-4-yl)-pyrido[3,4-d]pyrimidin-4-yl ester] | < 100 nM
c1cc(-c2nc(N3CCNCC3)c3c(C4CC4)cncc3n2)cc(Nc2nc3n(n2)CCCC3)n1 [Example 205, [4-(5-Cyclopropyl-4-piperazin-1-yl-pyrido[3,4-d]pyrimidin-2-yl)-pyridin-2-yl]-(5,6,7,8-tetrahydro-[1,2,4]triazolo[1,5-a]pyridin-2-yl)-amine] | < 100 nM
c1ccc2c(c1)[nH]c1nccc(-c3nc(N4CCOC5CNCC54)c4c(C5CCC5)cncc4n3)c12 (stereo not drawn) [Example 206, 4-[5-Cyclobutyl-4-(hexahydro-pyrrolo[3,4-b][1,4]oxazin-4-yl)-pyrido[3,4-d]pyrimidin-2-yl]-9H-pyrido[2,3-b]indole] | < 100 nM
Fc1cc(F)c(Nc2cc(-c3nc(NC45CCNCC4C5)c4c(C5CCC5)cncc4n3)ccn2)nc1F (stereo not drawn) [Example 208, (3-Aza-bicyclo[4.1.0]hept-6-yl)-{5-cyclobutyl-2-[2-(3,5,6-trifluoro-pyridin-2-ylamino)-pyridin-4-yl]-pyrido[3,4-d]pyrimidin-4-yl}-amine] | < 100 nM
Fc1ccc(F)c(Nc2cc(-c3nc(NC45CCNCC4C5)c4c(C5CCC5)cncc4n3)ccn2)n1 (stereo not drawn) [Example 209, (3-Aza-bicyclo[4.1.0]hept-6-yl)-{5-cyclobutyl-2-[2-(3,6-difluoro-pyridin-2-ylamino)-pyridin-4-yl]-pyrido[3,4-d]pyrimidin-4-yl}-amine] | < 100 nM
CC1(C)CNCC[C@@H]1Nc1nc(-c2ccnc(Nc3ncccc3F)c2)nc2cncc(C3CCC3)c12 [Example 210, {5-Cyclobutyl-2-[2-(3-fluoro-pyridin-2-ylamino)-pyridin-4-yl]-pyrido[3,4-d]pyrimidin-4-yl}-((S)-3,3-dimethyl-piperidin-4-yl)-amine] | < 100 nM
CC1(C)CNCC[C@@H]1Nc1nc(-c2ccnc(Nc3ncc(F)cc3F)c2)nc2cncc(C3CCC3)c12 [Example 211, {5-Cyclobutyl-2-[2-(3,5-difluoro-pyridin-2-ylamino)-pyridin-4-yl]-pyrido[3,4-d]pyrimidin-4-yl}-((S)-3,3-dimethyl-piperidin-4-yl)-amine] | < 100 nM
Cc1cc2c(-c3nc(N(C)[C@H]4CCNCC4(C)C)c4c(C5CC5)cncc4n3)ccnc2[nH]1 [Example 212, [5-Cyclopropyl-2-(2-methyl-1H-pyrrolo[2,3-b]pyridin-4-yl)-pyrido[3,4-d]pyrimidin-4-yl]-((S)-3,3-dimethyl-piperidin-4-yl)-methyl-amine] | < 100 nM

Further lines, results first:

IC50 | Compound
< 100 nM | CC1(C)CC(Nc2nc(-c3ccnc(Nc4nc(F)c(F)cc4F)c3)nc3cncc(C4CCC4)c23)CCN1 (stereo not drawn) [Example 137, {5-Cyclobutyl-2-[2-(3,5,6-trifluoro-pyridin-2-ylamino)-pyridin-4-yl]-pyrido[3,4-d]pyrimidin-4-yl}-(2,2-dimethyl-piperidin-4-yl)-amine]
< 100 nM | CC1(C)CC(Nc2nc(-c3ccnc(Nc4nc(F)ccc4F)c3)nc3cncc(C4CCC4)c23)CCN1 (stereo not drawn) [Example 138, {5-Cyclobutyl-2-[2-(3,6-difluoro-pyridin-2-ylamino)-pyridin-4-yl]-pyrido[3,4-d]pyrimidin-4-yl}-(2,2-dimethyl-piperidin-4-yl)-amine]
< 100 nM | Clc1ccc(-c2cc3c(-c4nc(N5CCNCC5)c5c(C6CC6)cncc5n4)ccnc3[nH]2)cc1 [Example 139, 2-[2-(4-Chloro-phenyl)-1H-pyrrolo[2,3-b]pyridin-4-yl]-5-cyclopropyl-4-piperazin-1-yl-pyrido[3,4-d]pyrimidine]
< 100 nM | Clc1ccc(-c2cc3c(-c4nc(N5CCC6NCCC65)c5c(C6CC6)cncc5n4)ccnc3[nH]2)cc1 (stereo not drawn) [Example 140, 2-[2-(4-Chloro-phenyl)-1H-pyrrolo[2,3-b]pyridin-4-yl]-5-cyclopropyl-4-(hexahydro-pyrrolo[3,2-b]pyrrol-1-yl)-pyrido[3,4-d]pyrimidine]
< 100 nM | c1ccc2c(c1)[nH]c1nccc(-c3nc(N[C@@H]4CCCNCC4)c4c(C5CCC5)cncc4n3)c12 [Example 141, (R)-Azepan-4-yl-[5-cyclobutyl-2-(9H-pyrido[2,3-b]indol-4-yl)-pyrido[3,4-d]pyrimidin-4-yl]-amine]
< 100 nM | Clc1ccc(Cl)c(-c2cc3c(-c4nc(N5CCC6NCCCC65)c5c(C6CC6)cncc5n4)ccnc3[nH]2)c1 (stereo not drawn) [Example 142, 5-Cyclopropyl-2-[2-(2,5-dichloro-phenyl)-1H-pyrrolo[2,3-b]pyridin-4-yl]-4-(octahydro-pyrrolo [3,2-b]pyridin-1-yl)-pyrido[3,4-d]pyrimidine]
< 100 nM | Cc1cc2c(-c3nc(N[C@@H]4CCNCC4(C)C)c4c(C5CC5)cncc4n3)ccnc2[nH]1 [Example 154, [5-Cyclopropyl-2-(2-methyl-1H-pyrrolo[2,3-b]pyridin-4-yl)-pyrido[3,4-d]pyrimidin-4-yl]-((R)-3,3-dimethyl-piperidin-4-yl)-amine]
< 100 nM | FC(F)(F)c1cc2c(-c3nc(N4CCOC5CNCC54)c4c(C5CC5)cncc4n3)ccnc2[nH]1 (stereo not drawn) [Example 155, 5-Cyclopropyl-4-(hexahydro-pyrrolo[3,4-b] [1,4]oxazin-4-yl)-2-(2-trifluoromethyl-1H-pyrrolo[2,3-b]pyridin-4-yl)-pyrido[3,4-d]pyrimidine]
< 100 nM | CC1(C)CNCCC1Nc1nc(-c2ccnc3[nH]c(-c4ccc(C(N)=O)cc4)cc23)nc2cncc(C3CC3)c12 (stereo not drawn) [Example 156, 4-{4-[5-Cyclopropyl-4-(3,3-dimethyl-piperidin-4-ylamino)-pyrido[3,4-d]pyrimidin-2-yl]-1H-pyrrolo[2,3-b]pyridin-2-yl}-benzamide]
< 100 nM | CC1(C)CNCC[C@@H]1Nc1nc(-c2ccnc(Nc3nc(F)ccc3F)c2)nc2cncc(C3CC3)c12 [Example 158, {5-Cyclopropyl-2-[2-(3,6-difluoro-pyridin-2-ylamino)-pyridin-4-yl]-pyrido[3,4-d]pyrimidin-4-yl}-((S)-3,3-dimethyl-piperidin-4-yl)-amine]
